The values below come from US20080119513A1, “Sulfonamide Derivative Selectively Inhibiting Mmp-13” (priority 2004, published 2008).

Experiment [1] addresses T1, MMP-2 (Homo sapiens, UniProt P08253).
T1 sequence (P08253 110-660): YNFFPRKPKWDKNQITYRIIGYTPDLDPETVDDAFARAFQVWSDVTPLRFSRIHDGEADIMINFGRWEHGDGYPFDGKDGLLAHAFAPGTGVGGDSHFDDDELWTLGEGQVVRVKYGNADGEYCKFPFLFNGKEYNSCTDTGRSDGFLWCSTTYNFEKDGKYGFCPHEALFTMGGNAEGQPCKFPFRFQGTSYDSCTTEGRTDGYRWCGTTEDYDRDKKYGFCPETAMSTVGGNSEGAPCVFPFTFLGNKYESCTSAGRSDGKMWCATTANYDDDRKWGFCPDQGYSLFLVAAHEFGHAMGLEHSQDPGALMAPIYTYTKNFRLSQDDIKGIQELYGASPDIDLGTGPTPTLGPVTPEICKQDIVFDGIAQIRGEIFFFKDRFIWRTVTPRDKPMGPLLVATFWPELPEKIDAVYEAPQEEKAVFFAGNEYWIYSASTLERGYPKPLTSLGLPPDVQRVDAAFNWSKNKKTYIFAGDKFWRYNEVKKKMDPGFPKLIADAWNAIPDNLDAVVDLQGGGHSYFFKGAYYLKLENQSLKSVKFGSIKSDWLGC
The experiment is described as follows: Assay for inhibitory activities on MMPs (fluorogenic peptide substrate), MMP-2. The format is biochemical. A digest of the protocol: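 Human MMP-2 activity measured with fluorogenic MOCAc-Pro-Leu-Gly-Leu-A2Pr(DNP)-Ala-Arg-NH2 substrate. Percent inhibition derived from fluorescence with and without enzyme and inhibitor, corrected for substrate and inhibitor background. IC50 taken as concentration giving 50% inhibition.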

Experiment [2] addresses T2, MMP-8 (Homo sapiens, UniProt P22894).
T2 construct: In regard to MMP-8, catalytic domain (^99Phe˜^262Gly) was amplified with PCR; His-tag; enterokinase digestion-site
The experiment in a line: Assay for inhibitory activities on MMPs (fluorogenic peptide substrate), MMP-8. The experiment is classed as biochemical. Summed up: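 Human MMP-8 catalytic domain (Phe99–Gly262), His-tagged, E. coli-expressed, urea-solubilised, refolded. Fluorogenic substrate MOCAc-Pro-Leu-Gly-Leu-A2Pr(DNP)-Ala-Arg-NH2; fluorescence read with enzyme/inhibitor, substrate/inhibitor, enzyme-only and substrate-only wells. % inhibition = {1-(A−B)/(C−D)}×100; IC50 is concentration giving 50% inhibition.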

In experiment [3] the target is MMP-9 (Homo sapiens, UniProt P14780). The experiment in a line: Assay for inhibitory activities on MMPs (fluorogenic peptide substrate), MMP-9. The format is biochemical. Summed up: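 ProMMP-9 purified from TPA-stimulated HT1080 cells and activated with TPCK-trypsin, assayed with fluorogenic MOCAc-Pro-Leu-Gly-Leu-A2Pr(DNP)-Ala-Arg-NH2. Percent inhibition from fluorescence of reactions with and without enzyme and inhibitor; IC50 as concentration giving 50% inhibition.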
MMP-9, sequence (P14780 107-707): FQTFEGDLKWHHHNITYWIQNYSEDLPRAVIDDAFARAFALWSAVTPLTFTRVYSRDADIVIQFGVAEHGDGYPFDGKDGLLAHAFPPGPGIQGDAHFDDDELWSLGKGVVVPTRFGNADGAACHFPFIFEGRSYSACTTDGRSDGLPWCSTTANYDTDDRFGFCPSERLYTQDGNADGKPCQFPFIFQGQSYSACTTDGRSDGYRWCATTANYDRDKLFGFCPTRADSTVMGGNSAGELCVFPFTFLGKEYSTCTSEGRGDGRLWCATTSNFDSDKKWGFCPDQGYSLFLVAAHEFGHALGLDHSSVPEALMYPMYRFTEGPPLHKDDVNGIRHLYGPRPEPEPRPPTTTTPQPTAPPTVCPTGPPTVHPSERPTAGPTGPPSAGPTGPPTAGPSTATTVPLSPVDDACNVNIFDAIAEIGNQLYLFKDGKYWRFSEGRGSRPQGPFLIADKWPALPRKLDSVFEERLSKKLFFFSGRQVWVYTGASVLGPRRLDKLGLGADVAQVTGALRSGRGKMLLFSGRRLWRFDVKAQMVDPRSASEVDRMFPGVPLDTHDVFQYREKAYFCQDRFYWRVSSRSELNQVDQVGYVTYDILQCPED

For experiment [4], the target named is T3, MMP-12 (Homo sapiens, UniProt P39900).
T3 construct: In regard to MMP-12, catalytic domain (^100Phe˜^263Gly) was amplified with RT-PCR; His-tag; enterokinase digestion-site
T3 sequence (P39900 100-263): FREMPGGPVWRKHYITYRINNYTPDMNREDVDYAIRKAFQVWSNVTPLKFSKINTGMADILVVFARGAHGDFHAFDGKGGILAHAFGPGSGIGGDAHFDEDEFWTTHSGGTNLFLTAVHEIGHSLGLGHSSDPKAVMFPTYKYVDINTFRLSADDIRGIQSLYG
The experiment in a line: Assay for inhibitory activities on MMPs (fluorogenic peptide substrate), MMP-12. The format is biochemical. Summed up:
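Refolded His-tagged human MMP-12 catalytic domain (Phe100–Gly263) expressed in E. coli, assayed with fluorogenic substrate MOCAc-Pro-Leu-Gly-Leu-A2Pr(DNP)-Ala-Arg-NH2. Percent inhibition calculated from fluorescence with and without enzyme and inhibitor, corrected for inhibitor-only and substrate-only blanks; IC50 is concentration giving 50% inhibition.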

For experiment [5], the system named is Rat osteoarthritis model. The experiment is described as follows: Inhibition of disease progression in the rat osteoarthritis model. The experiment is classed as in vivo. Particulars: female SD rats, medial meniscectomy and collateral ligament transection; 10 mg/kg orally twice daily for 6 weeks. As for the experimental part: Rat osteoarthritis model was prepared according to the procedure reported by Meacock et al. (J. Exp. Path. 71, 279-293, 1990), by medial meniscectomy and collateral ligament transection on the right knee of 12 weeks old female SD rats (Charles River Japan). 0.5% methylcellulose or compounds (II-3) or (III-11) (10 mg/kg) were orally administered twice daily from the following day of the surgery for 6 weeks.
On the next day of final administration, tibial plateaus were removed. The surfaces of the tibial plateau were stained with India ink (Kuretake), and then photographed using a digital camera (Nikon). The progressive level of OA lesion was scored using a photographic image thereof.

The structures appear in SMILES notation.

T2 sequence (P22894 99-262): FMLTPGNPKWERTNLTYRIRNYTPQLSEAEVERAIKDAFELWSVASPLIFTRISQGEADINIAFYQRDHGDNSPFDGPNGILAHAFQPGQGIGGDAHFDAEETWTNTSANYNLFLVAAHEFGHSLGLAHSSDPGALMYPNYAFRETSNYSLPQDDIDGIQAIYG

Regarding `O=C(O)[C@@H](Cc1ccccc1)NS(=O)(=O)c1ccc(-c2ccc(C#Cc3ccc4ccccc4c3)cc2)cc1` [III-11], the concentration for half-maximal inhibition (IC50) in experiment [1] was 163 nM; in experiment [2], 128 nM; in experiment [3], more than 10000 nM; in experiment [4], 2000 nM. The “inhibitory activities (progressive level of OA lesion, scored)” value in experiment [5] is 77.2%.

Usually IC50 stands for the concentration at which inhibition is half-maximal.
